According to patent CN110483432A, “一类丙烯酸类化合物及其制备方法、药物组合物和用途” (Shanghai Institute of Materia Medica of CAS, priority 2018, dated 2019):

Tests used:
[1] = biological target: CREB/CRTC2 (Homo sapiens, UniProt P16220+Q53ET0); experiment: Mammalian two-hybrid (CREB-GAL4-BD / CRTC2-VP16-AD, Gal4-luciferase reporter) test of inhibition of CREB/CRTC2 protein interaction in HEK293 cells; assay type: cell-based; details: 50 μM final concentration; HEK293 two-hybrid activation model (Forsklin); overnight; read-out: relative reporter gene activity (vs solvent control DMSO, set to 100%)
Chain of CREB/CRTC2 (P16220 whole entry, the tested form may be a part): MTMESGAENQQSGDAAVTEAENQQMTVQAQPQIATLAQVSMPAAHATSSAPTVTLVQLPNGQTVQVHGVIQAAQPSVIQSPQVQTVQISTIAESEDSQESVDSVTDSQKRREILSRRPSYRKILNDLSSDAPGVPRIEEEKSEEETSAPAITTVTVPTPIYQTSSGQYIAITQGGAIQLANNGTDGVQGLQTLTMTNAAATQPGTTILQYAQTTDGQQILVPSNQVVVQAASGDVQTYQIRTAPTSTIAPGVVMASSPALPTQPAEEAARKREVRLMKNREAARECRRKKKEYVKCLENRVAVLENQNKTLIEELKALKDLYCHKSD
Chain of CREB/CRTC2 (Q53ET0 whole entry, the tested form may be a part): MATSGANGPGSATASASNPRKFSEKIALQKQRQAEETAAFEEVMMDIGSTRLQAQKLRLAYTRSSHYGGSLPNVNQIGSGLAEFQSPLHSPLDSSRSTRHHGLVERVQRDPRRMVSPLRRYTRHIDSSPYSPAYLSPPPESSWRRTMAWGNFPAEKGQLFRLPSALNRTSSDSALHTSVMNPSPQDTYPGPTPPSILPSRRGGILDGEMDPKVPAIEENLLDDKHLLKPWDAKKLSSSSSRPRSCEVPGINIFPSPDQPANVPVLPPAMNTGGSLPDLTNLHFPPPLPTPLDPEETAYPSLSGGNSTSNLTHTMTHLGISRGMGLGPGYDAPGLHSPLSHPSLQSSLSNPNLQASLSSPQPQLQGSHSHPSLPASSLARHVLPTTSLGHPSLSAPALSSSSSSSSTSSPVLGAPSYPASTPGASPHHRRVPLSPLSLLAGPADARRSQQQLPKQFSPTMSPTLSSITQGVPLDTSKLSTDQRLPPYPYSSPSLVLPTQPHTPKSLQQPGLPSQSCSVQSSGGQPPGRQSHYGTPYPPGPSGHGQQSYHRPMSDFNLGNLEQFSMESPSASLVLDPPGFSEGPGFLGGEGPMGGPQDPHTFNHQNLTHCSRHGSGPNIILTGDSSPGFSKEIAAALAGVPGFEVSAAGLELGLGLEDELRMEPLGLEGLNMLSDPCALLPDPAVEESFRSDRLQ

[2] = Cytotoxicity test in HEK293 cells (CCK8); assay type: cell-based; details: human, overnight, HEK293, CCK8 OD450, read-out: cell viability
[3] = tested on: CREB phosphorylation (Ser133) (CREB的磷酸化(Ser133)); experiment: Western blot of CREB phosphorylation (Ser133) in glucagon signalling pathway; assay type: cell-based, mouse; details: 20 μM, 1 h preincubation, glucagon 100 nM, 30 min, primary hepatocytes or liver tissue

remaining activity at 50 µM [1]: < 30%
Compound: O=C(/C=C/c1cccc(-c2ccccc2)c1)N1C(=O)OC[C@@H]1c1ccccc1 [A57, (S,E)-3-(3-([1,1’-联苯基]-3-基)丙烯酰)-4-苯基噁唑烷-2-酮]
viability at 50 µM [2]: ~100% | effect on glucagon-stimulated CREB phosphorylation level [3]: 没有显著的影响
